Reference: patent EP1113726B1, “USE OF NEOHESPERIDIN DIHYDROCHALCONE FOR THE MANUFACTURE OF A MEDICAMENT FOR PREVENTING OR TREATING ELEVATED BLOOD LIPID LEVEL-RELATED DISEASES” (Korea Research Institute of Bioscience and Biotechnology, priority 1998, dated 2000)

How the values were obtained:
[1] = tested on: New Zealand White rabbits; experiment: Microscopic grading of abnormal fat-containing cells in the liver of cholesterol-fed rabbits (fatty liver); assay type: in vivo; details: 1 % cholesterol diet for 6 weeks plus 1 mg/kg Lovastatin or 0.05 % neohesperidin dihydrochalcone
Method: 30 three-month-old New Zealand White rabbits(Yeonam Horticulture and Animal Husbandry College, Korea), each weighing about 2.5 to 2.6 kg, were raised under a condition of temperature 20±2°C, relative humidity 55±5 %, and photoperiod 12L/12D. The rabbits were divided into 3 groups and 3 groups of rabbits were fed with 3 different diets, i.e., RC4 diet(Oriental Yeast Co., Japan) containing 1 % cholesterol(Control group); 1 % cholesterol plus 1 mg/kg Lovastatin®(Merck, U.S.A.)(Lovastatin group); and 1 % cholesterol plus 0.05 % neohesperidin dihydrochalcone(Neohesperidin dihydrochalcone group), respectively. RC4 diet comprises 7.6 % moisture, 22.8 % crude protein, 2.8 % crude fat, 8.8 % crude ash, 14.4 % crude cellulose and 43.6 % soluble nitrogen-free substances. Neohesperidin dihydrochalcone was purchased from Sigma Chemical Co.(St. Louis, MO).
The rabbits were fed for 6 weeks while being allowed free access to the diets and water.
In order to evaluate the effects of feeding a high cholesterol diet with neohesperidin dihydrochalcone on liver tissues, the liver specimens taken from the sacrificed rabbit in Step 2 of Example 6 were treated in accordance with the procedure disclosed in Fogt F. and Nanji A., Toxicology and Applied Pharmacology, 136, 87-93, 1996; and Keegan A., et al., Journal of Hepatology 23: 591-600, 1995, and observed under a microscope to be classified into four grades, i.e., 1+(0-25%), 2+(26-50%), 3+(51-75), 4+(76-100%) based on the proportion of abnormal fat-containing cells around the central vein in the liver acinus.
Figs. 2A, 2B and 2C present the microscopic features of the livers of the rabbits administered with 1% cholesterol; 1% cholesterol plus 1 mg/kg Lovastatin®; 1% and cholesterol plus 0.05% neohesperidin dihydrochalcone, respectively.

HMG-CoA reductase = target: T1, HMG-CoA reductase (Rattus norvegicus, UniProt P51639); experiment: HMG-CoA reductase activity assay (modified Hulcher's method) on liver microsomes of the diet-fed rats; assay type: biochemical; details: ex vivo: liver microsomes of rats fed 1 % cholesterol plus 0.05 % neohesperidin dihydrochalcone for six weeks, versus Control group
T1 construct: the supernatant was ultracentrifuged at 100,000xg for 60 minutes to obtain microsomal precipitates; from tissue; host or cells: rat liver microsomes
T1 sequence (P51639 1-887): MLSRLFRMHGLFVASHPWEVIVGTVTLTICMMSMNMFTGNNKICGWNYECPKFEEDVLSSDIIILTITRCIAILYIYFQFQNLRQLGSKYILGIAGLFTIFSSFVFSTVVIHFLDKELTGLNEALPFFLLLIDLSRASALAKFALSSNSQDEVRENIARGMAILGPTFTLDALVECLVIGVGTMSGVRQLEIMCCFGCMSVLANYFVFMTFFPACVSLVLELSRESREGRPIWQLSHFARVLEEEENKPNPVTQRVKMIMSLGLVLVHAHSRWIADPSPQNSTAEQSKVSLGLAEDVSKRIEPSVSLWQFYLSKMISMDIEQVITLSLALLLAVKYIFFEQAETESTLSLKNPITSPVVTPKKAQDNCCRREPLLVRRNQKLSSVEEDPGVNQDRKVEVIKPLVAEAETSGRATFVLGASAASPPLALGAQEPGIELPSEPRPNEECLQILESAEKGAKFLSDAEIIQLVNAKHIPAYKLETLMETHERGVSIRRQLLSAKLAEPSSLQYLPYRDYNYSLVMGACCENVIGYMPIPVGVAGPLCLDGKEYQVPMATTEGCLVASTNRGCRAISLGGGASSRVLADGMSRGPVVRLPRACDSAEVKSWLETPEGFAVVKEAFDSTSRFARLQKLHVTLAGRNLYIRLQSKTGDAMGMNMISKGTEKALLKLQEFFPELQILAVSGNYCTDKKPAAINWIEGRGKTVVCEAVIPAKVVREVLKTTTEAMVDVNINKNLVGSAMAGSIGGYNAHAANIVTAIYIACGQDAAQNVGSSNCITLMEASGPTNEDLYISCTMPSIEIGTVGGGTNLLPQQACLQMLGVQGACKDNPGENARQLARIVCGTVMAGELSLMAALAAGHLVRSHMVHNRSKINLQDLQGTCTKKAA
Method: In order to determine the activity of HMG-CoA reductase, Hulcher's method was employed after some modification (see J. Lipid Res., 14, 625-641(1973)). In this method, the concentration of the coenzyme-A(CoA-SH), which is produced when HMG-CoA is reduced to a mevalonate salt by the action of HMG-CoA reductase, is determined by spectroscopy and the activity of HMG-GoA reductase is calculated therefrom.
3 g of liver tissue taken from each group of rats of Example 2 was washed succesively with 100 ml of a cold-saline(0.15M NaCl) and 100ml of a cold buffer solution A(0.1M triethanolamine, HCl/0.2M EDTA/2mM dithiothreitol(DTT)). The cold buffer solution A was added to the liver tissue in an amount of 2 ml per 1 g of the liver tissue and the mixture was homogenized with a homogenizer. The homogenate was centrifuged at 15,000xg for 15 minutes, and then, the supernatant was ultracentrifuged at 100,000xg for 60 minutes to obtain microsomal precipitates. […]
Then, the reactant was mixed with 20µl of DTNB buffer solution(3mM DTNH/0.1M triethanolamine/0.2M EDTA, pH 7.4) and the absorbance of the mixture was determined at 412nm to calculate the amount of CoA-SH(activity of HMG-CoA reductase).
The extent of inhibition of HMG-CoA reductase activity by neohesperidin dihydrochalcone was calculated based on the above result.

Sprague-Dawley rats = experiment: Plasma total cholesterol, HDL-cholesterol and neutral lipid levels in rats fed a high-cholesterol diet; details: 1 % cholesterol diet plus 0.05 % neohesperidin dihydrochalcone, six weeks

COc1ccc(CCC(=O)c2c(O)cc(O[C@@H]3O[C@H](CO)[C@@H](O)[C@H](O)[C@H]3O[C@@H]3O[C@@H](C)[C@H](O)[C@@H](O)[C@H]3O)cc2O)cc1O [Neohesperidin dihydrochalcone]
B: Proportion of abnormal fat-containing cells ([1]; rabbit liver, cells around the central vein, mean of grades 1+ to 4+): 2.7 (±0.3) | microscopic features of the liver (Figs. 2B, 2C) ([1]; rabbits): almost all liver cells are of a normal shape | Inhibition of HMG-CoA reductase activity (%) (HMG-CoA reductase): 30% | (HDL-C)/(Total-C (%)) (Sprague-Dawley rats): 16% | neutral lipid content reduced, as compared with Control group (Sprague-Dawley rats): 9% | total plasma cholesterol level reduced, as compared with Control group (Sprague-Dawley rats): 15% | HDL-C (Sprague-Dawley rats; n=10): 19 ± 3 mg/dL | TG (Sprague-Dawley rats; n=10): 52 ± 8 mg/dL | Total-C (Sprague-Dawley rats; n=10): 115 ± 10 mg/dL
